Settings: Liquid, Frequency=8 MHz, Pulse-echo method

OCCCO [propan-1,3-diol]
Settings	speed of sound [m/s]
293.15 K, 100 kPa	1635.2
293.15 K, 5030 kPa	1650
293.15 K, 10062 kPa	1664.6
293.15 K, 15066 kPa	1678.9
293.15 K, 20096 kPa	1692.9
293.15 K, 24997 kPa	1706.3
293.15 K, 30029 kPa	1719.9
313.15 K, 99 kPa	1589.5
313.15 K, 5048 kPa	1605.1
313.15 K, 10031 kPa	1620.3
313.15 K, 15138 kPa	1635.4
313.15 K, 20064 kPa	1649.8
313.15 K, 25191 kPa	1664.4
313.15 K, 30167 kPa	1678.3
333.15 K, 100 kPa	1544.1
333.15 K, 5058 kPa	1560.3
333.15 K, 10054 kPa	1576.2
333.15 K, 15024 kPa	1591.7
333.15 K, 20153 kPa	1607.2
333.15 K, 25135 kPa	1622
333.15 K, 30136 kPa	1636.6
353.15 K, 101 kPa	1497.6
353.15 K, 5038 kPa	1514.6
353.15 K, 10023 kPa	1531.3
353.15 K, 15089 kPa	1547.8
353.15 K, 20158 kPa	1563.9
353.15 K, 25109 kPa	1579.3
353.15 K, 30076 kPa	1594.4

CC(C)O [propan-2-ol]
Settings	speed of sound [m/s]
253.15 K, 99 kPa	1301
253.15 K, 5138 kPa	1328.8
253.15 K, 10106 kPa	1354.9
253.15 K, 15136 kPa	1380
253.15 K, 20143 kPa	1404
253.15 K, 25229 kPa	1427.5
253.15 K, 30036 kPa	1448.9
273.15 K, 100 kPa	1227.9
273.15 K, 5275 kPa	1258.8
273.15 K, 10173 kPa	1286.4
273.15 K, 15164 kPa	1313.3
273.15 K, 20289 kPa	1339.6
273.15 K, 25102 kPa	1363.3
273.15 K, 30264 kPa	1387.7
293.15 K, 100 kPa	1157.4
293.15 K, 5085 kPa	1189.7
293.15 K, 10183 kPa	1220.8
293.15 K, 15273 kPa	1250.2
293.15 K, 20239 kPa	1277.4
293.15 K, 25220 kPa	1303.6
293.15 K, 30278 kPa	1328.9
313.15 K, 100 kPa	1087.2
313.15 K, 5177 kPa	1123.1
313.15 K, 10104 kPa	1155.7
313.15 K, 15187 kPa	1187.5
313.15 K, 20126 kPa	1216.6
313.15 K, 25138 kPa	1244.7
313.15 K, 30110 kPa	1271.1
333.15 K, 100 kPa	1016
333.15 K, 5048 kPa	1054.5
333.15 K, 10038 kPa	1090.6
333.15 K, 15065 kPa	1124.6
333.15 K, 20102 kPa	1156.5
333.15 K, 25093 kPa	1186.4
333.15 K, 30014 kPa	1214.4
353.15 K, 100 kPa	940.5
353.15 K, 5080 kPa	983.88
353.15 K, 10091 kPa	1023.9
353.15 K, 15114 kPa	1060.8
353.15 K, 20132 kPa	1095.3
353.15 K, 25164 kPa	1127.6
353.15 K, 30380 kPa	1159.2

— the NIST ThermoML archive (doi:10.1016/j.jct.2016.06.001)
